These results are taken from patent US10894798B2, “Substituted dihydropyrrolopyrazole derivative” (UBE INDUSTRIES, LTD., priority 2015, dated 2021).

What all share (assay type): cell-based
Experiment [1] has as its system Human keratinocytes (NHEK-Neo Pooled). Description: Human keratinocyte growth inhibition assay. The settings on record: 48 h, culture for 2 days, Cell Counting Kit-8. How it is done:
The measurement of a human keratinocyte growth inhibitory effect was carried out by modifying the method of Schafer et al. (British Journal of Pharmacology, 159, 842 (2011)).
Human keratinocytes (NHEK-Neo Pooled, manufactured by Lonza Group AG) were cultured in KGM-Gold keratinocyte growth medium Bullet Kit (manufactured by Lonza Group AG) and inoculated at 2×10^3 cells/well to a 96-well plate. After overnight culture in a carbon dioxide incubator, a test compound dissolved in DMSO (final DMSO concentration: 0.1%) was added thereto and left standing in a carbon dioxide incubator. After culture for 2 days, the absorbance thereof was measured by using Cell Counting Kit-8 (manufactured by Dojindo Laboratories).
The rate of inhibition of cell growth at each concentration was calculated from the test compound concentration and the absorbance of Cell Counting Kit-8, and the concentration of the test compound necessary for inhibiting 50% of cell growth (GI50 value) was calculated by using EXSUS (version 8.1.0, manufactured by CAC Exicare Corp.).

Experiment [2] concerns breast cancer cell line BT-549. Description: Various human cancer cell growth inhibition test: BT-549. The settings on record: ATPlite, read-out: GI50 value (concentration necessary for inhibiting 50% of cell growth). The source says: (§1) A breast cancer cell line BT-549 (obtained from American Type Culture Collection (ATCC)), a uterus cancer cell line C-33A (obtained from ATCC), an ovary cancer cell line PA-1 (obtained from ATCC), a large-cell lung cancer cell line NCI-H460 (obtained from ATCC), a small-cell lung cancer cell line NCI-H82 (obtained from ATCC), a kidney cancer cell line ACHN (obtained from ATCC), a pancreatic cancer cell line BxPC-3 (obtained from ATCC), a malignant melanoma cell line A375 (obtained from ATCC), a throat cancer cell line FaDu (obtained from ATCC), a medulloblastoma cell line Daoy (obtained from ATCC), a cutaneous epithelioid sarcoma cell line VA-ES-BJ (obtained from ATCC), a rhabdomyosarcoma cell line A-204 (obtained from ATCC), a prostate cancer cell line DU145 (obtained from ATCC), a bladder cancer cell line T24 (obtained from ATCC), a lymphoma cell line SR (obtained from ATCC), a neuroblastoma cell line SH-SY5Y (obtained from DS Pharma Biomedical Co., Ltd.), a liver cancer cell line HepG2 (obtained from DS Pharma Biomedical Co., Ltd.), a stomach cancer cell line HGC-27 (obtained from DS Pharma Biomedical Co., Ltd.), and a multiple myeloma cell line NCI-H929 (obtained from DS Pharma Biomedical Co., Ltd.) were used as human cancer cell lines.
(§2) Each cell line was cultured in a cell culture medium recommended by ATCC or DS Pharma Biomedical Co., Ltd. and inoculated at 0.3 to 5.0×10^3 cells/well to a 96-well plate. The cells were cultured overnight in a carbon dioxide incubator of 37° C. containing 5% carbon dioxide. The medium was replaced with a fresh medium on the next day, then replaced with a mixed solution of a DMSO solution of a test compound with varying concentrations and a culture medium (final DMSO concentration: 0.1%), and left standing in a carbon dioxide incubator (day 0). IV-361, IV-379, IV-3, IV-215, IV-299, IV-669, IV-1049, and palbociclib (for comparison) were used as test compounds. For a control group, DMSO was added instead of the DMSO solution of the test compound to a cell culture medium (final DMSO concentration: 0.1%).
(§3) After culture for a predetermined period, the ATP activity of BT-549, C-33A, PA-1, NCI-H460, NCI-H82, ACHN, BxPC-3, A375, FaDu, Daoy, VA-ES-BJ, A-204, DU145, T24, and SR was measured by using ATPlite (manufactured by PerkinElmer, Inc.). The ATP activity of SH-SY5Y, HepG2, HGC-27, and NCI-H929 was measured by using CellTiter-Glo (manufactured by Promega Corp.).
(§4) The rate of inhibition of cell growth (%) was calculated according to the expression given below. Specifically, in the case where the difference between the ATP activity before culture (day 0) and the ATP activity after culture in the test compound-administered group is the same as the difference between the ATP activity before culture (day 0) and the ATP activity after culture in the control group, the rate of inhibition of cell growth is 0%. Rate of inhibition of cell growth=(1−((ATP activity of the test compound-administered group after culture)−(ATP activity of the test compound-administered group on day 0))/((ATP activity of the control group after culture)−(ATP activity of the control group on day 0)))×100
(§5) The concentration of the test compound necessary for inhibiting 50% of cell growth (GI50 value) was calculated by using EXSUS (version 8.1.0, manufactured by CAC Exicare Corp.).

For experiment [3], the system named is large-cell lung cancer cell line NCI-H460. Description: Various human cancer cell growth inhibition test: NCI-H460. Conditions: ATPlite, read-out: GI50 value (concentration necessary for inhibiting 50% of cell growth).
Description: as §1, §2, §3, §4, §5

Experiment [4] has as its system small-cell lung cancer cell line NCI-H82. Briefly: Various human cancer cell growth inhibition test: NCI-H82. The settings on record: ATPlite, read-out: GI50 value (concentration necessary for inhibiting 50% of cell growth).
Description: as §1, §2, §3, §4, §5

Experiment [5] has as its system kidney cancer cell line ACHN. Briefly: Various human cancer cell growth inhibition test: ACHN. The settings on record: ATPlite, read-out: GI50 value (concentration necessary for inhibiting 50% of cell growth).
Description: as §1, §2, §3, §4, §5

Experiment [6] concerns pancreatic cancer cell line BxPC-3. Description: Various human cancer cell growth inhibition test: BxPC-3. Conditions: ATPlite, read-out: GI50 value (concentration necessary for inhibiting 50% of cell growth).
Description: as §1, §2, §3, §4, §5

The subject of experiment [7] is malignant melanoma cell line A375. Description: Various human cancer cell growth inhibition test: A375. Conditions: A-375, ATPlite, read-out: GI50 value (concentration necessary for inhibiting 50% of cell growth).
Description: as §1, §2, §3, §4, §5

In experiment [8] the test system is throat cancer cell line FaDu. Description: Various human cancer cell growth inhibition test: FaDu. Conditions: ATPlite, read-out: GI50 value (concentration necessary for inhibiting 50% of cell growth).
Description: as §1, §2, §3, §4, §5

Experiment [9] has as its system medulloblastoma cell line Daoy. Description: Various human cancer cell growth inhibition test: Daoy. Conditions: ATPlite, read-out: GI50 value (concentration necessary for inhibiting 50% of cell growth).
Description: as §1, §2, §3, §4, §5

For experiment [10], the system named is cutaneous epithelioid sarcoma cell line VA-ES-BJ. Description: Various human cancer cell growth inhibition test: VA-ES-BJ. The settings on record: ATPlite, read-out: GI50 value (concentration necessary for inhibiting 50% of cell growth).
Description: as §1, §2, §3, §4, §5

Experiment [11] deals with rhabdomyosarcoma cell line A-204. Briefly: Various human cancer cell growth inhibition test: A-204. Conditions: A204, ATPlite, read-out: GI50 value (concentration necessary for inhibiting 50% of cell growth).
Description: as §1, §2, §3, §4, §5

The test system of experiment [12] is bladder cancer cell line T24. Description: Various human cancer cell growth inhibition test: T24. The settings on record: ATPlite, read-out: GI50 value (concentration necessary for inhibiting 50% of cell growth).
Description: as §1, §2, §3, §4, §5

In the next experiment the test system is lymphoma cell line SR. Description: Various human cancer cell growth inhibition test: SR. Conditions: ATPlite, read-out: GI50 value (concentration necessary for inhibiting 50% of cell growth).
Description: as §1, §2, §3, §4, §5

Experiment [13] has as its system stomach cancer cell line HGC-27. Briefly: Various human cancer cell growth inhibition test: HGC-27. The settings on record: CellTiter-Glo, read-out: GI50 value (concentration necessary for inhibiting 50% of cell growth).
Description: as §1, §2, §3, §4, §5

Some results are limits rather than exact numbers.

Take `Cc1ccc(C)c(NC(=O)N2Cc3c(NC(=O)C4([Si](C)(C)C)CCC4)n[nH]c3C2(C)C)c1` [IV-379, N-(2,5-Dimethylphenyl)-6,6-dimethyl-3-[1-(trimethylsilyl)cyclobutanecarboxamido]-4,6-dihydropyrrolo[3,4-c]pyrazole-5(1H)-carboxamide]: the GI50 is not above 500 nM in [1]; less than 300 nM in experiment [2]; less than 300 nM in experiment [3]; less than 300 nM in experiment [4]; less than 300 nM in [5]; less than 300 nM in experiment [6]. The GI50 in experiment [7], in [8], in [9], in experiment [10], in experiment [11] and in experiment [12] was less than 300 nM in each case. Also, the GI50 (with lymphoma cell line SR; in experiment [13]) was less than 300 nM each time.
